The results in this text go back to patent publication US20240101548A1, “HYDROXAMATE COMPOUND, PREPARATION METHOD THEREFOR AND APPLICATION THEREOF” (SHENZHEN CHIPSCREEN BIOSCIENCES CO., LTD., priority 2020, published 2024).

Series [1] has as its system EPO-induced JAK2 signal pathway. Description: EPO-induced proliferation of UT-7 cells (JAK2 signal). Particulars: Homo sapiens, UT7; UT-7 cell proliferation, EPO 10 ng/mL, 72 hours; read-out: Inhibition activity IC50 on EPO-induced JAK2 signal pathway. The class given is cell-based, human. The essentials:
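[…] was derived from inhibition rates across doses, scaled between wells lacking compound and cytokine (0) and EPO without compound (100), using alamarBlue fluorescence at Ex530/Em590. Compound (final 0-10000 nM) and 10 ng/mL EPO were given to UT-7 cells at 15000 per well for 72 h at 37° C.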

Another series deals with TYK2 JH2 domain (Homo sapiens (Human), UniProt P29597). The experiment in a line: TYK2 JH2 domain FRET tracer assay. The class given is binding. Particulars: FRET 665/615 nm; read-out: Inhibition activity IC50 on TYK2 JH2 domain. How it is done: Compound of the present invention formulated into different concentrations (series 3 times dilutions, started from 60 μM, 11 concentrations in total) was added to 384-well plate, followed by 5 μL of enzyme (i.e., TYK2 JH2 domain), Tb antibody (Cisbio) and tracer. The mixture was incubated at 25° C. for 60 min and left at 4° C. overnight.

In series [2] the test system is IL-2-induced JAK1/JAK3 signal pathway. The experiment in a line: IL-2-induced proliferation of KHYG-1 cells (JAK1/JAK3 signal). The class given is cell-based, human. Particulars: Homo sapiens; KHYG-1 cell proliferation, IL-2 10 ng/mL, 72 hours; read-out: Inhibition activity IC50 on IL-2-induced JAK1/JAK3 signal pathway. The essentials: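 Controls were wells lacking both compound and cytokine (0%) and compound-free IL-2 wells (100%). C50 was calculated from inhibition rates across doses.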

Series [3] has as its system IL-10-induced JAK1/TYK2 signal pathway. Description: IL-10-induced JAK1/TYK2 signal pathway STAT3-Luc reporter gene assay in U2OS cells. The class given is cell-based, human. Particulars: U2OS cells, STAT3-Luc reporter, IL-10 10 ng/mL, read-out: Half inhibition dose (IC50) on IL-10-induced JAK1/TYK2 signal pathway. The essentials: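 Luciferase read-out (560 nm) corrected by GFP signal (Ex485/Em520) gives IL-10 pathway activity, and IC50 is derived from inhibition rates. Cells were U2OS transfected with IL-10R1 plus STAT3-Luc reporter, pretreated 6 h with 0.1–300 nM compound, then stimulated 24 h with IL-10 at 10 ng/mL.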
A general note: A reporter such as luciferase makes a cellular process visible.

Series [4] relates to INF-α-induced pSTAT5 in human PBMC. Description: INF-α-induced pSTAT5 in human PBMC (FACS, CD3 positive cells). The class given is cell-based. Particulars: IFN-α 30 ng/ml, read-out: Inhibition activity IC50 on INF-α-induced pSTAT5 in human PBMC. How it is done:
hPBMC (available from Shanghai AoNeng Biotechnology Co., Ltd.) was inoculated in 96-well plate, added with compound of the present invention (at concentrations of 40 nM and 200 nM), incubated for 60 min (compound in concentrations of 2 nM, 10 nM respectively during the incubation); added with 30 ng/ml of stimulating factor IFN-α (BioLegend) together with anti-CD3 antibody (Biolegend) and then continued to be incubated for 30 min. After the incubation, each well was added with 1 mL of fixing solution (BD Biosciences), the obtained mixture was incubated for 10 min followed by centrifugation, added with 400 μL/well of Perm III (BD Biosciences), followed by further incubation at 4° C. for 30 min. The obtained mixture was added with mouse anti-human pSTAT5 antibody (Alexa Fluor® 647 Conjugate), followed by incubation at room temperature for 40 min. Fluorescence intensity of pSTAT5 in CD3 positive cells was detected by FACS.
Inhibition rate at individual compound concentration was calculated with the following formula:
Inhibition rate=(MFI value(IFN-α-stimulated control)−MI value(2/10 nM compound treated group)/MFI value(IFN-α-stimulated control)[…]
wherein: MFI value meant fluorescence intensity value; IFN-α-stimulated control meant control group which was operated similarly to the experimental groups but no compound of the present invention was added.

Series [5] in a line: In-vivo pharmacokinetic test in mice. Particulars: mouse, po; BALB/c female mice, gavage 10 mg/kg, plasma. The method, then: LC-MS/MS method is used to determine the drug concentration in the plasma of mice at different times after intragastric administration of the compound of the example. Relevant pharmacokinetic parameters are calculated to study the pharmacokinetic behavior of the compound of the present invention in mice, thereby evaluating the pharmacokinetic characteristics thereof.
Test animal was healthy adult BALB/c female mouse (provided by Chengdu Yaokang Biotechnology Co., Ltd.);
Compound administration and sample collection: compound was administered to BALB/c female mice by gavage (10 mg/kg). At 0.25, 0.5, 1, 2, 4, 6, 8, and 24 hours after administration, 60 μL of whole blood of the mouse fundus venous plexus were collected and centrifuged at 4000 rpm for 10 min to provide plasma.
Sample analysis: 10 μL of mouse plasma samples were respectively added with 290 μL of acetonitrile solution containing internal standard to precipitate proteins. After swirling for 10 min and centrifuging at 4000 rpm for 10 min, 200 μL of supernatant was added to 96-well plate, and analyzed by LC-MS/MS at an injection volume of 1 μL.

Where two headings read alike, the source gives them in different places.

The term AUC denotes the area under the concentration-time curve, a measure of exposure. A lower AUC goes with low exposure. As usually defined, the Cmax is the highest concentration seen after dosing.

Chain of TYK2 JH2 domain (P29597 589-875): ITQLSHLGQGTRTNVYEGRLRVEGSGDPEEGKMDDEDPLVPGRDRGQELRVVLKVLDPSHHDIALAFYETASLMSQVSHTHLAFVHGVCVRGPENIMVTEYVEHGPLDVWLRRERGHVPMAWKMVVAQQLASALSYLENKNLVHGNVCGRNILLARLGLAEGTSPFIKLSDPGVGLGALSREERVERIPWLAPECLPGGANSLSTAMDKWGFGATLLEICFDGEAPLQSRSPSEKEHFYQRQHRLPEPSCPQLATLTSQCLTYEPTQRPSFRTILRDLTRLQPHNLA

With `CCONC(=O)c1cnc(Nc2cc(C)nc(C)n2)cc1Nc1cc(F)cc(-c2ncn(C3CC3)n2)c1OC` [Example 204], the IC50 was greater than 10000 nM in series [1]; 0.06 nM on TYK2 JH2 domain; greater than 10000 nM in series [2]; 0.534 nM in series [3] (Homo sapiens, U2OS).

Regarding `CCONC(=O)c1cnc(NC(=O)C2CC2)cc1Nc1cc(F)cc(-c2ncn(C3CC3)n2)c1OC` [Example 205], the IC50 in series [1] is greater than 10000 nM; in series [4] (Homo sapiens, PBMC), less than 2 nM; in series [2], greater than 10000 nM; in series [3] (Homo sapiens, U2OS) it was 1.79 nM.

Turning to `CCONC(=O)c1cnc(Nc2cc(C)nc(C)n2)cc1Nc1cccc(-c2ncc(F)cn2)c1OC` [Example 208, 6-((2,6-dimethylpyrimidin-4-yl)amino)-N-ethoxy-4-((3-(5-fluoropyrimidin-2-yl)-2-methoxyphenyl)amino)nicotinamide], the IC50 is greater than 10000 nM in series [1]; greater than 10000 nM in series [2]; 0.889 nM in series [3] (Homo sapiens, U2OS). Also, the AUC in series [5] was 34.3 µM·h. This molecule had a Cmax in series [5] of 16.4 µM.

As to `CCONC(=O)c1cnc(Nc2cc(C)nc(C)n2)cc1Nc1cc(F)cc(-c2ncc(F)cn2)c1OC` [Example 211], the IC50 was greater than 10000 nM in series [1]; less than 2 nM in series [4] (Homo sapiens, PBMC); greater than 10000 nM in series [2]; 1.98 nM in series [3] (Homo sapiens, U2OS).

With `CCONC(=O)c1cnc(Nc2cc(C)nc(C)n2)cc1Nc1cccc(-c2cnc(C)cn2)c1OC` [Example 213], the IC50 is greater than 10000 nM in series [1]; greater than 10000 nM in series [2]; 0.146 nM in series [3] (Homo sapiens, U2OS). Also, in series [5], the AUC was found to be 49.3 µM·h. Also, in series [5], the Cmax is 18 µM.

Regarding `CCONC(=O)c1cnc(Nc2cc(C)nc(C)n2)cc1Nc1cc(F)cc(-c2cnc(C)cn2)c1OC` [Example 214], the IC50 in series [1] was greater than 10000 nM; on TYK2 JH2 domain it was 0.09 nM; in series [2], greater than 10000 nM; in series [3] (Homo sapiens, U2OS) it was 0.16 nM. Besides, the AUC in series [5] is 41.9 µM·h. The molecule further displayed a Cmax in series [5] of 9.21 µM.

For the molecule `CCONC(=O)c1cnc(Nc2cc(C)nc(C)n2)cc1Nc1cc(F)cc(-c2ncc(C)cn2)c1OC` [Example 225, 6-((2,6-dimethylpyrimidin-4-yl)amino)-N-ethoxy-4-((5-fluoro-2-methoxy-3-(5-methylpyrimidin-2-yl)phenyl)amino)nicotinamide], the IC50 was greater than 10000 nM in series [1]; less than 2 nM in series [4] (Homo sapiens, PBMC); greater than 10000 nM in series [2]; 0.36 nM in series [3] (Homo sapiens, U2OS).

As to `CCONC(=O)c1cnc(Nc2cc(C)nc(C)n2)cc1Nc1cc(F)c(C(C)C)cc1N(C)S(C)(=O)=O` [Example 229, 6-((2,6-dimethylpyrimidin-4-yl)amino)-N-ethoxy-4-((5-fluoro-4-isopropyl-2-(N-methylmethanesulfonamido)phenyl)amino)nicotinamide], the IC50 in series [1] is greater than 10000 nM; on TYK2 JH2 domain, 0.05 nM; in series [2], greater than 10000 nM; in series [3] (Homo sapiens, U2OS), 0.424 nM.

Turning to `CCONC(=O)c1cnc(Nc2cc(C)nc(C)n2)cc1Nc1cccc(-c2cnccn2)c1OC` [Example 248, 6-((2,6-dimethylpyrimidin-4-yl)amino)-N-ethoxy-4-((2-methoxy-3-(pyrazin-2-yl)phenyl)amino)nicotinamide], the IC50 in series [1] was greater than 10000 nM; in series [4] (Homo sapiens, PBMC) it was less than 2 nM; in series [2], greater than 10000 nM; in series [3] (Homo sapiens) it was 1.04 nM.

`CCONC(=O)c1cnc(NC(=O)C2CC2(F)F)cc1Nc1ccc(C2CC2)cc1N(C)S(C)(=O)=O` (stereo not shown) [Example 277, 4-((4-cyclopropyl-2-(N-methylmethanesulfonamido)phenyl)amino)-6-(2,2-difluorocyclopropyl-1-carboxamido)-N-ethoxy nicotinamide]: the IC50 in series [1] was greater than 10000 nM; on TYK2 JH2 domain, 0.12 nM; in series [2], greater than 10000 nM; in series [3] (Homo sapiens, U2OS), 0.466 nM.

On to BMS-986165, for which the values for the IC50 in series [4] and in series [3] were 2 nM and 3.03 nM, respectively.
